Assays:
[1] = molecular target: T1, histamine 1 receptor (H1R) (Homo sapiens, UniProt P35367); assay type: binding; conditions: histamine subtype selectivity; data not shown
[2] = molecular target: T1, histamine 1 receptor (H1R); conditions: cellular membrane binding studies; data not shown
P2Y1 receptor [3] = experiment: Frontal affinity chromatography on CMAC; assay type: binding, human
[4] = molecular target: T1, histamine 1 receptor (H1R); experiment: Frontal affinity chromatography, competitive displacement on CMAC; assay type: binding; conditions: CMAC(1321N1P2Y1); marker 50 pM [3H]-mepyramine; 10 μM 2-MeSADP in mobile phase
P2Y1 receptor [5] = molecular target: P2Y1 receptor (Homo sapiens, UniProt P47900); experiment: as above; assay type: binding; conditions: CMAC(1321N1P2Y1); marker 1 nM [3H]-2-MeSADP; 1 μM mepyramine in mobile phase
Chain of P2Y1 receptor (Homo sapiens, UniProt P47900) (P47900 whole entry): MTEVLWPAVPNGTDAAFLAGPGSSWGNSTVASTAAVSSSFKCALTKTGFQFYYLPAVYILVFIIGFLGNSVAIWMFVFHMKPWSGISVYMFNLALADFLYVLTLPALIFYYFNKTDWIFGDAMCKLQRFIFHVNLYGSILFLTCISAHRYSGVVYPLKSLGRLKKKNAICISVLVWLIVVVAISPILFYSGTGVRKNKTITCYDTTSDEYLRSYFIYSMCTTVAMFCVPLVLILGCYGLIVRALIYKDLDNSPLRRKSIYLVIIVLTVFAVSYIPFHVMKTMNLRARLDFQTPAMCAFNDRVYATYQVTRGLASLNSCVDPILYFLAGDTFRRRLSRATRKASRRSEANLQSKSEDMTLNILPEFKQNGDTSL

T1 sequence (P35367 whole entry): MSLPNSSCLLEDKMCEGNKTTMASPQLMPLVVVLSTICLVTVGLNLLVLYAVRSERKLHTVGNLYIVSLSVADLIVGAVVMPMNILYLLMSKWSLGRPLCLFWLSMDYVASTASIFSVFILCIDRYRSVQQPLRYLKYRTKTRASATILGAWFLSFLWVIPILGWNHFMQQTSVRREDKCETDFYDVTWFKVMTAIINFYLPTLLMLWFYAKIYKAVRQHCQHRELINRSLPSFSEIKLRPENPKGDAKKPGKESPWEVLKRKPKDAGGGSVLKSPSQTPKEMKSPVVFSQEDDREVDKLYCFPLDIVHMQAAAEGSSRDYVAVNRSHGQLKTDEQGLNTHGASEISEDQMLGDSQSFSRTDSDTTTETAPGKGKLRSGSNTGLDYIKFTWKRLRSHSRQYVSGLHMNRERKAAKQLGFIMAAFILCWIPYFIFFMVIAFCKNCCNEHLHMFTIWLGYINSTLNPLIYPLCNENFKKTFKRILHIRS

4-methylhistamine
specific retention on CMAC(1321N1) column [1]: No specific retention
specific binding to 1321N1 cellular membranes [2]: did not specifically bind

CSc1nc(N)c2ncn([C@@H]3O[C@H](COP(=O)(O)OP(=O)(O)O)[C@@H](O)[C@H]3O)c2n1 [2-MeSADP]
CMAC(1321N1) Kd (P2Y1 receptor [3]; P2Y1, non-transfected 1321N1 membranes): No binding
specific retention on CMAC(1321N1) column (P2Y1 receptor [3]; [3H]-2-MeSADP added to the mobile phase): no specific retention
effect on the breakthrough volume of mepyramine [4]: no effect

COc1ccc(CN(CCN(C)C)c2ccccn2)cc1 [Mepyramine, mepyramine]
effect on the breakthrough volume of 2-MeSADP (P2Y1 receptor [5]): no effect

— publication PMC4605401 (Journal of pharmaceutical and biomedical analysis, 2009)
